# Measured values reported in BindingDB's records for doi:10.1016/s0960-894x(98)00730-6 (University At Stony Brook, 1999).
# Where a SMILES comes first, the peptide text is derived from it. [ ]: non-standard residue; d: D form. The star is where a group is joined. Biotinyl(3aR,4R,6aS) = O=C1N[C@@H]2[C@@H](CS[C@@H]2CCCCC(=O)*)N1; Phe(4-guanidino) = N=C(N)Nc1ccc(C[C@H](N)C(=O)O)cc1; Bpa = N[C@@H](Cc1ccc(C(=O)c2ccccc2)cc1)C(=O)O; X3 = O=C1N[C@@H]2CSC(CCCCC(=O)*)[C@@H]2N1; Phe(4-F) = N[C@@H](Cc1ccc(F)cc1)C(=O)O; X4 = O=C(c1ccccc1)c1ccc(CCC(=O)*)cc1; Orn = NCCC[C@H](N)C(=O)O; X1 = O=C(C=Cc1ccccc1)*; Propionyl = CCC(=O)*
# Test: Human Thrombin receptor 1 (PAR-1) antagonistic ability to inhibit SFLLRN-NH2 (2.7 uM)-induced platelet aggregation
row,Compound,IC50
1,CC(C)C[C@H](NC(=O)[C@H](Cc1ccc(N=C(N)N)cc1)NC(=O)[C@H](Cc1ccc(F)cc1)NC(=O)CCc1ccc(C(=O)c2ccccc2)cc1)C(=O)N[C@@H](CCCNC(=N)N)C(=O)O [(S)-2-{(S)-2-[(S)-2-[(S)-2-[3-(4-Benzoyl-phenyl)-propionylamino]-3-(4-fluoro-phenyl)-propionylamino]-3-(4-guanidino-phenyl)-propionylamino]-4-methyl-pentanoylamino}-5-guanidino-pentanoic acid] (X4-[Phe(4-F)][Phe(4-guanidino)]LR-OH),3.1 µM
2,CCC(=O)NCCC[C@H](NC(=O)[C@H](Cc1ccc(C(=O)c2ccccc2)cc1)NC(=O)[C@H](CC(C)C)NC(=O)[C@H](Cc1ccc(N=C(N)N)cc1)NC(=O)[C@H](Cc1ccc(F)cc1)NC(=O)C=Cc1ccccc1)C(=O)O [(S)-2-((S)-3-(4-Benzoyl-phenyl)-2-{(S)-2-[(S)-2-{(S)-3-(4-fluoro-phenyl)-2-[(E)-(3-phenyl-acryloyl)amino]-propionylamino}-3-(4-guanidino-phenyl)-propionylamino]-4-methyl-pentanoylamino}-propionylamino)-5-propionylamino-pentanoic acid] (X1-[Phe(4-F)][Phe(4-guanidino)]L[Bpa][Orn](Propionyl)-OH),9 µM
3,"N=C(N)NCCC[C@H](NC(=O)[C@H](Cc1ccc(C(=O)c2ccccc2)cc1)NC(=O)[C@H](Cc1ccc(N=C(N)N)cc1)NC(=O)[C@H](Cc1ccc(F)cc1)NC(=O)C=Cc1ccccc1)C(=O)N[C@@H](CCCNC(=O)CCCC[C@H]1SC[C@H]2NC(=O)N[C@H]21)C(=O)O [(2S)-5-{5-[(3aR,4R,6aS)-2-oxo-hexahydro-1H-thieno[3,4-d]imidazolidin-4-yl]pentanamido}-2-[(2S)-2-[(2S)-3-(4-benzoylphenyl)-2-[(2S)-3-(4-carbamimidamidophenyl)-2-[(2S)-3-(4-fluorophenyl)-2-[(2E)-3-phenylprop-2-enamido]propanamido]propanamido]propanamido]-5-carbamimidamidopentanamido]pentanoic acid] (X1-[Phe(4-F)][Phe(4-guanidino)][Bpa]R[Orn](Biotinyl(3aR,4R,6aS))-OH)",3.4 µM
4,"CC(C)C[C@H](NC(=O)[C@H](Cc1ccc(N=C(N)N)cc1)NC(=O)[C@H](Cc1ccc(F)cc1)NC(=O)C=Cc1ccccc1)C(=O)N[C@@H](Cc1ccc(C(=O)c2ccccc2)cc1)C(=O)N[C@@H](CCCNC(=O)CCCCC1SC[C@H]2NC(=O)N[C@@H]12)C(=O)O (stereo partly drawn) [(2S)-5-{5-[(3aR,6aS)-2-oxo-hexahydro-1H-thieno[3,4-d]imidazolidin-4-yl]pentanamido}-2-[(2S)-3-(4-benzoylphenyl)-2-[(2S)-2-[(2S)-3-(4-carbamimidamidophenyl)-2-[(2S)-3-(4-fluorophenyl)-2-[(2E)-3-phenylprop-2-enamido]propanamido]propanamido]-4-methylpentanamido]propanamido]pentanoic acid] (X1-[Phe(4-F)][Phe(4-guanidino)]L[Bpa][Orn](X3)-OH)",9.7 µM
5,CC(C)C[C@H](NC(=O)[C@H](Cc1ccc(N=C(N)N)cc1)NC(=O)[C@H](Cc1ccc(F)cc1)NC(=O)C=Cc1ccccc1)C(=O)N[C@@H](CCCNC(=N)N)C(=O)O [(S)-2-{(S)-2-[(S)-2-{(S)-3-(4-Fluoro-phenyl)-2-[(E)-(3-phenyl-acryloyl)amino]-propionylamino}-3-(4-guanidino-phenyl)-propionylamino]-4-methyl-pentanoylamino}-5-guanidino-pentanoic acid] (X1-[Phe(4-F)][Phe(4-guanidino)]LR-OH),0.3 µM

# Second part, the molecule after the results:
row,IC50,Compound
1,3.1 µM,CCC(=O)NCCC[C@H](NC(=O)[C@H](CCCNC(=N)N)NC(=O)[C@H](Cc1ccc(C(=O)c2ccccc2)cc1)NC(=O)[C@H](Cc1ccc(N=C(N)N)cc1)NC(=O)[C@H](Cc1ccc(F)cc1)NC(=O)C=Cc1ccccc1)C(=O)O [(S)-2-((S)-2-{(S)-3-(4-Benzoyl-phenyl)-2-[(S)-2-{(S)-3-(4-fluoro-phenyl)-2-[(E)-(3-phenyl-acryloyl)amino]-propionylamino}-3-(4-guanidino-phenyl)-propionylamino]-propionylamino}-5-guanidino-pentanoylamino)-5-propionylamino-pentanoic acid] (X1-[Phe(4-F)][Phe(4-guanidino)][Bpa]R[Orn](Propionyl)-OH)
2,6 µM,N=C(N)NCCC[C@H](NC(=O)[C@H](Cc1ccc(C(=O)c2ccccc2)cc1)NC(=O)[C@H](Cc1ccc(N=C(N)N)cc1)NC(=O)[C@H](Cc1ccc(F)cc1)NC(=O)C=Cc1ccccc1)C(=O)O [(S)-2-{(S)-3-(4-Benzoyl-phenyl)-2-[(S)-2-{(S)-3-(4-fluoro-phenyl)-2-[(E)-(3-phenyl-acryloyl)amino]-propionylamino}-3-(4-guanidino-phenyl)-propionylamino]-propionylamino}-5-guanidino-pentanoic acid] (X1-[Phe(4-F)][Phe(4-guanidino)][Bpa]R-OH)
3,13 µM,CC(C)C[C@H](NC(=O)[C@H](Cc1ccc(N=C(N)N)cc1)NC(=O)[C@H](Cc1ccc(F)cc1)NC(=O)C=Cc1ccccc1)C(=O)N[C@@H](Cc1ccc(C(=O)c2ccccc2)cc1)C(=O)O [(S)-3-(4-Benzoyl-phenyl)-2-{(S)-2-[(S)-2-{(S)-3-(4-fluoro-phenyl)-2-[(E)-(3-phenyl-acryloyl)amino]-propionylamino}-3-(4-guanidino-phenyl)-propionylamino]-4-methyl-pentanoylamino}-propionic acid] (X1-[Phe(4-F)][Phe(4-guanidino)]L[Bpa]-OH)
